Measurements taken from patent US6479056B1, “Live vaccine constituting minor risk for humans” (priority 1994, dated 2002).

System: wild strains
Assay: MHK of antibiotics for wild strains
Type: cell-based, Salmonella

Row | Structure (SMILES) | MHK
1 | O=C(N[C@H](CO)[C@H](O)c1ccc([N+](=O)[O-])cc1)C(Cl)Cl [chloramphenicol] | (Berlin-Chemie) 2.0 ug/ml
2 | O=C(O)c1cn(C2CC2)c2cc(N3CCNCC3)c(F)cc2c1=O [ciprofloxacin] | (Bayer) wild strains MHK 0.05 ug/ml
3 | C[C@H]1c2cccc(O)c2C(=O)C2=C(O)[C@]3(O)C(=O)C(C(N)=O)=C(O)[C@@H](N(C)C)[C@@H]3[C@@H](O)[C@@H]21 [doxycycline] | (Jenapharm) wild strains MHK 4.0 ug/ml
4 | CC[C@H]1OC(=O)[C@H](C)[C@@H](O[C@H]2C[C@@](C)(OC)[C@@H](O)[C@H](C)O2)[C@H](C)[C@@H](O[C@@H]2O[C@H](C)C[C@H](N(C)C)[C@H]2O)[C@](C)(O)C[C@@H](C)C(=O)[C@H](C)[C@@H](O)[C@]1(C)O [erythromycin] | (Abbott) wild strains MHK 60.0 ug/ml
5 | CCn1cc(C(=O)O)c(=O)c2ccc(C)nc21 [nalidixic acid] | (CHINOIN, Budapest) wild strains MHK 6.2 ug/ml
6 | [H]/N=C(/N)N[C@H]1[C@H](O)[C@@H](O)[C@H](O[C@@H]2O[C@@H](C)[C@](O)(C=O)[C@H]2O[C@@H]2O[C@@H](CO)[C@H](O)[C@@H](O)[C@@H]2NC)[C@@H](N/C(N)=N\[H])[C@@H]1O [streptomycin] | (Jenapharm) wild strains MHK 6.2 ug/ml
